Data on 10 compounds can be found in PMC6149824, “Design and Synthesis of New Benzothiazole Compounds as Selective hMAO-B Inhibitors” (Molecules : A Journal of Synthetic Chemistry and Natural …, 2017).

One data set addresses T1, hMAO-B (Homo sapiens, UniProt P27338).
T1 sequence (P27338 1-520): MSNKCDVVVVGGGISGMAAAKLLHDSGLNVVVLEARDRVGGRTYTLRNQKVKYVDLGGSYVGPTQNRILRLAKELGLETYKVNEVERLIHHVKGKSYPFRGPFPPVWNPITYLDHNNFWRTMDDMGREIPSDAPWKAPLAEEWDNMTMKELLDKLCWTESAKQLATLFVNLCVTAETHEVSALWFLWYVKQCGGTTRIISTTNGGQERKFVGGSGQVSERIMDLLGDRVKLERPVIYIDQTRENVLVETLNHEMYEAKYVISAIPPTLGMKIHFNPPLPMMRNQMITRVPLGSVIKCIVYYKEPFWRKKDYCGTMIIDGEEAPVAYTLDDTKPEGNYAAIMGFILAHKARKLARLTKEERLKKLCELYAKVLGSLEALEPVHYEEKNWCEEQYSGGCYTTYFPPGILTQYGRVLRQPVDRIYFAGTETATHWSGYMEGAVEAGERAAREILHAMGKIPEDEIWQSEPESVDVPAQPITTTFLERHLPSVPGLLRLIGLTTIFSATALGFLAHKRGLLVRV
Description: in vitro fluorometric hMAO-B inhibition assay (Amplex Red). The class given is biochemical. The settings on record: for inhibition at 1000 µM: 10^−3 M; for inhibition at 1000 µM / inhibition at 100 µM: read-out: MAO B Inhibition %; for inhibition at 100 µM: 10^−4 M; for inhibition against hMAO-B (first screening step): 10^−3 and 10^−4 M; for IC50: concentrations of 10^−5–10^−9 M, mean ± SD, read-out: MAO B IC50. As to the method:
The method was performed in two steps, as previously described.
An enzyme inhibition assay was performed according to our recent study. […] After the incubation period, the reaction was started by adding a working solution (100 μL/well) ([…] Amplex Red reagent, 1 U/mL horseradish peroxidase and 1 mM p-tyramine) and all pipetting processes were performed using a Biotek Precision XS robotic system (BioTek Instruments, Winooski, VT, USA).
(§1) Control experiments were carried out simultaneously by replacing the inhibitor solution with 2% DMSO (20 μL). In order to check the probable inhibitory effect of inhibitors on horseradish peroxidase, a parallel reading was achieved by replacing enzyme solutions with 3% H2O2 solution (20 mM 100 μL/well). In addition, the probable capacity of the inhibitors to modify the fluorescence generated in the reaction mixture due to non-enzymatic inhibition was determined by mixing inhibitor and working solutions.
(§2) The specific fluorescence emission (used to obtain the final results) was calculated after subtraction of the background activity, which was determined from vials containing all components except the hMAO isoforms, which were replaced by phosphate buffer (100 μL/well). Blank, control and all concentrations of inhibitors were analyzed in quadruplicate and inhibition percent was calculated by using following equation: % Inhibition=(FCt2−FCt1)−(FIt2−FIt1)/FCt2−FCt1×100 where FCt2 is the fluorescence of a control well measured at t2 time; FCt1 is the fluorescence of a control well measured at t1 time; FIt2 is the fluorescence of an inhibitor well measured at t2 time; and FIt1 is the fluorescence of an inhibitor well measured at t1 time.
(§3) The IC50 values were calculated from a dose-response curve obtained by plotting the percentage inhibition versus the log concentration with the use of GraphPad PRISM software (version 5.0, GraphPad Software Inc., La Jolla, CA, USA).

Another data set concerns the target T2, hMAO-A (Homo sapiens, UniProt P21397).
T2 sequence (P21397 1-527): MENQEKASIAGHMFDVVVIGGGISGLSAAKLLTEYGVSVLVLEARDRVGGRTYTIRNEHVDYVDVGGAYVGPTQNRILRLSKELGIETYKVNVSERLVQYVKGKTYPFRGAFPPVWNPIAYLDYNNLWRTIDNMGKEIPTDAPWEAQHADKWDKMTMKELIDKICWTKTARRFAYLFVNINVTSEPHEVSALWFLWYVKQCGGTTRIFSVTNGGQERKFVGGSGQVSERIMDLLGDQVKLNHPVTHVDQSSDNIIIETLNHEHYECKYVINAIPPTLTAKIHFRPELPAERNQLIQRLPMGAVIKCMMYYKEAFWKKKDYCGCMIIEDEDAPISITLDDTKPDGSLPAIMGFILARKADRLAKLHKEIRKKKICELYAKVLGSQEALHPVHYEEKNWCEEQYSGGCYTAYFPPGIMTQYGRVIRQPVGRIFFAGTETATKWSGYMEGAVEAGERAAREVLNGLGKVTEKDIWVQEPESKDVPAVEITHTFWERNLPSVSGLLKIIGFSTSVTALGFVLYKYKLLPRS
Description: in vitro fluorometric hMAO-A inhibition assay (Amplex Red). Type of data set: biochemical. The settings on record: read-out: MAO A Inhibition %; for inhibition at 1000 µM: 10^−3 M; for inhibition at 100 µM: 10^−4 M. As to the method:
The in vitro fluorometric enzymatic assay, allowing to sensitively detect monoamine oxidase activity, was applied to investigate hMAO-A and hMAO-B inhibitory potential of compounds 3a–3j. The method was performed in two steps, as previously described. […]
An enzyme inhibition assay was performed according to our recent study. The inhibitor (20 μL/well) and hMAO-A (100 μL/well) or hMAO-B solution (100 μL/well) was added to the fine black-bottom 96-well microtiter plate and the mixture was incubated at 37 °C for 30 min. After the incubation period, the reaction was started by adding a working solution (100 μL/well) ([…] Amplex Red reagent, 1 U/mL horseradish peroxidase and 1 mM p-tyramine) and all pipetting processes were performed using a Biotek Precision XS robotic system (BioTek Instruments, Winooski, VT, USA).
as §1, with “The production of H2O2 and, subsequently, of resorufin was quantified at 37 °C in a BioTek-Synergy H1 microplate reader based on the fluorescence generated (excitation, 535 nm, emission, 587 nm) over a 15 min period, in which the fluorescence increased linearly. Control” for “Control”
as §2, §3

For `COc1ccc2sc(SCC(=O)NN=Cc3ccncc3)nc2c1` [Compound 3j, 2-((5-Methoxybenzothiazol-2-yl)thio)-N′-(pyridin-4-ylmethylene)acetohydrazide], the melting point (as a rule, the temperature of the solid-liquid transition) was 159.8 to 161.4 °C. For the same compound, on hMAO-B, the inhibition (in general, the change of the read-out against control, counted positive when it falls) at 1000 µM turned out to be 34.6% and the inhibition at 100 µM worked out at 30.5%. At hMAO-A, the inhibition at 1000 µM came to 22.1% and the inhibition at 100 µM is 17.3%.
In the case of `COc1ccc2sc(SCC(=O)NN=Cc3ccco3)nc2c1` [Compound 3f, N′-(Furan-2-ylmethylene)-2-((5-methoxybenzothiazol-2-yl)thio)acetohydrazide], the melting point was 146.1 to 147.9 °C. At hMAO-B, the inhibition at 1000 µM amounted to 75.7%, the “inhibition against hMAO-B (first screening step)” value (“inhibition against hMAO-B” for short) is listed as “more than 50%”, the inhibition at 100 µM was 68.3% and the IC50 (usually the point on the concentration scale where inhibition reaches its midpoint) was determined as 963 ± 33 nM. Moreover, on hMAO-A, the inhibition at 1000 µM worked out at 30.8% and the inhibition at 100 µM was found to be 18.3%.
As for `COc1ccc2sc(SCC(=O)NN=Cc3cccnc3)nc2c1` [Compound 3i, 2-((5-Methoxybenzothiazol-2-yl)thio)-N′-(pyridin-3-ylmethylene)acetohydrazide], the melting point was 177.5 to 179.3 °C. On hMAO-B, the inhibition at 1000 µM was 32% and the inhibition at 100 µM came out at 28.8%. In addition, on hMAO-A, the inhibition at 1000 µM came to 19.9% and the inhibition at 100 µM amounted to 10.6%.
Taken in the same sequence, the figures for `COc1ccc2sc(SCC(=O)NN=Cc3ccc(Br)s3)nc2c1` [Compound 3d, N′-((5-Bromothiophen-2-yl)methylene)-2-((5-methoxybenzothiazol-2-yl)thio)acetohydrazide] were 188.3 to 190.4 °C, 24%, 17.8%, 18.9% and 12.7%.
`COc1ccc2sc(SCC(=O)NN=Cc3cccs3)nc2c1` [Compound 3a, 2-((5-Methoxybenzothiazol-2-yl)thio)-N′-(thiophen-2-ylmethylene)acetohydrazide] gave a melting point of 163.7 to 165.3 °C. In addition, at hMAO-B, the inhibition at 1000 µM was determined as 60.4%, the “inhibition against hMAO-B” value is “more than 50%”, the inhibition at 100 µM came to 52.1% and the IC50 is 15400 ± 398 nM. Also, at hMAO-A, the inhibition at 1000 µM came out at 25% and the inhibition at 100 µM was found to be 19%.
As to `O=C(NCCN1CCOCC1)c1ccc(Cl)cc1` [Moclobemide, reference compound], at hMAO-A, the inhibition at 1000 µM was 91.4 ± 4.6% and the inhibition at 100 µM is 77.9 ± 3.71%.
As to `COc1ccc2sc(SCC(=O)NN=Cc3ccc([N+](=O)[O-])o3)nc2c1` [Compound 3h, 2-((5-Methoxybenzothiazol-2-yl)thio)-N′-((5-nitrofuran-2-yl)methylene)acetohydrazide], the melting point fell in the range of 168.9 to 170.7 °C. Moreover, at hMAO-B, the inhibition at 1000 µM worked out at 82.6%, the “inhibition against hMAO-B” value is “more than 50%”, the inhibition at 100 µM is 79.1% and the IC50 worked out at 75 ± 3 nM. On hMAO-A, the inhibition at 1000 µM amounted to 25.9% and the inhibition at 100 µM came to 21.3%.
The compound `COc1ccc2sc(SCC(=O)NN=Cc3ccc(C)o3)nc2c1` [Compound 3g, 2-((5-Methoxybenzothiazol-2-yl)thio)-N′-((5-methylfuran-2-yl)methylene)acetohydrazide] had a melting point of 145.3 to 146.7 °C. Besides, at hMAO-B, the inhibition at 1000 µM stood at 18.2% and the inhibition at 100 µM is 11.2%. On hMAO-A, the inhibition at 1000 µM stood at 16.7% and the inhibition at 100 µM came out at 11.1%.
Taken in the same sequence, the figures for `COc1ccc2sc(SCC(=O)NN=Cc3sccc3C)nc2c1` [Compound 3b, 2-((5-Methoxybenzo[d]thiazol-2-yl)thio)-N′-((3-methylthiophen-2-yl)methylene)acetohydrazide] were 162.9 to 164.4 °C, 30.5%, 26.9%, 30.1% and 20.4%.
Turning to `COc1ccc2sc(SCC(=O)NN=Cc3ccc(C)s3)nc2c1` [Compound 3c, 2-((5-Methoxybenzothiazol-2-yl)thio)-N′-((5-methylthiophen-2-yl)methylene)acetohydrazide], the melting point was 149.6 to 152.3 °C. In addition, on hMAO-B, the inhibition at 1000 µM worked out at 25.8% and the inhibition at 100 µM was found to be 18.2%. At hMAO-A, the inhibition at 1000 µM worked out at 14.1% and the inhibition at 100 µM was 10.8%.
